Assay results taken from patent publication US20080254016A1, “Composition For Increasing Anti-Oxidation Activity In Blood” (Kaneka Corporation, priority 2005, published 2008).

What was measured:
[1] = healthy person, intake of oxidized coenzyme Q10; cited from earlier work
[2] = Reduced coenzyme Q10 ratio in plasma after oral administration, 62-week-old SD rats (Example 2); assay type: in vivo
Description: (§1) The ratio of the reduced form to the total coenzyme Q10 is generally determined by a method comprising quantifying oxidized coenzyme Q10 and reduced coenzyme Q10 in a sample by high performance liquid chromatography (HPLC) using an UV detector and calculating the ratio from the volume ratio obtained, or a method comprising using an HPLC system incorporated with an electrochemical detector for calculating the ratio of oxidized coenzyme Q10 and reduced coenzyme Q10 from the peak area. The HPLC system incorporated with an electrochemical detector makes it possible to specifically determine oxidation-reduction substances and has high sensitivity, and thus is highly useful for determining trace amount of reduced coenzyme Q10 in the living body or samples. In the present invention, all the reduced coenzyme Q10 ratios are determined by the HPLC system incorporated with an electrochemical detector.
(§2) In these Examples, the ratio of reduced coenzyme Q10 to the total coenzyme Q10 was determined using the HPLC system incorporated with an electrochemical detector (product of Shiseido Co., Ltd.) and a reduction column (product of Shiseido Co., Ltd.).
(§3) 10 SD rats (62-week-old, males) were divided into 2 groups each consisted of 5 rats so that each group had the same average body weight value. To one group, a solution of reduced coenzyme Q10in soybean oil (containing about 1% of oxidized coenzyme Q10) was orally administered, and to the other group, a solution of oxidized coenzyme Q10 in soybean oil was orally administered, each at the dose of 100 mg/kg body weight in coenzyme Q10 equivalent. Then, the reduced coenzyme Q10 ratio in plasma was determined with time lapses. Blood was collected after 1, 2, 4 and 8 hours of oral administration, and centrifuged to obtain plasma. The concentration of reduced coenzyme Q10 and oxidized coenzyme Q10 in the obtained plasma was quantified using HPLC in order to determine the ratio of the reduced form.

[3] = Reduced coenzyme Q10 ratio in plasma after oral administration, 5-week-old SD rats (Reference Example 1); assay type: in vivo
Description: as §1, with “The HPLC system incorporated with an electrochemical detector makes it possible to specifically determine oxidation-reduction substances and has high sensitivity, and thus is highly useful for determining trace amount of reduced coenzyme Q10 in the living body or samples.” left out
as §2
10 SD rats (5-week-old, males) were divided into 2 groups each consisted of 5 rats so that each group had the same average body weight value. […] Then, the reduced coenzyme Q10 ratio in plasma was determined with time lapses. […] The concentration of reduced coenzyme Q10 and oxidized coenzyme Q10 in the obtained plasma was quantified using HPLC in order to determine the reduced coenzyme Q10 ratio.

[4] = Reduced coenzyme Q10 ratio in plasma after oral administration, 54-week-old SD rats (Example 1); assay type: in vivo
Description: as §1, §2
as §3, with “(54-week-old,” for “(62-week-old,”, “Q10 in” for “Q10in”

[5] = Reduced coenzyme Q10 ratio in plasma of healthy aged people fed soft capsules (Example 3); assay type: in vivo, human; conditions: healthy aged people 64 to 77 years old, two soft capsules (100 mg of coenzyme Q10), since 2 hours after administration
Description: as §1, with “The HPLC system incorporated with an electrochemical detector makes it possible to specifically determine oxidation-reduction substances and has high sensitivity, and thus is highly useful for determining trace amount of reduced coenzyme Q10 in the living body or samples.” left out
as §2
Two soft capsules obtained in Preparation Example 5 and Comparative Preparation Example 1 (containing 100 mg of coenzyme Q10) were fed to two groups of healthy aged people (20 male and female individuals in each group, age: 64 to 77 years old), and the effect on the reduced coenzyme Q10 ratio in plasma was evaluated.

[6] = male, SD, rat, in vivo, po, 100 mg/kg, 1 h
[7] = male, SD, rat, in vivo, po, 100 mg/kg, 8 h

SMILES | amount of reduced coenzyme Q10 in plasma [1] | ratio of reduced coenzyme Q10 to oxidized coenzyme Q10 in plasma [1] | ratio of the reduced form of coenzyme Q10 in plasma [2, 6] | ratio of the reduced form of coenzyme Q10 in plasma [2, 7] | difference in the reduced coenzyme Q10 ratio in plasma between administration of reduced and oxidized coenzyme Q10 ([3]; rat, in vivo, po, 100 mg/kg) | ratio of the reduced form of coenzyme Q10 in plasma [4, 6] | ratio of the reduced form of coenzyme Q10 in plasma [4, 7] | ratio of the reduced form of coenzyme Q10 in plasma ([2]; 62-week-old male SD rats, 100 mg/kg oral in soybean oil, over 1-8 hours) | difference in the reduced coenzyme Q10 ratio in plasma between administration of reduced and oxidized coenzyme Q10 ([3]; 5-week-old male SD rats, 100 mg/kg oral in soybean oil, after 2 hours or later of administration) | ratio of reduced coenzyme Q10 to the total coenzyme Q10 in plasma, time course [5] | ratio of the reduced form of coenzyme Q10 in plasma ([4]; 54-week-old male SD rats, 100 mg/kg oral in soybean oil, over 1-8 hours)
COC1=C(OC)C(=O)C(C/C=C(\C)CCC=C(C)CCC=C(C)CCC=C(C)CCC=C(C)CCC=C(C)CCC=C(C)CCC=C(C)CCC=C(C)CCC=C(C)C)=C(C)C1=O [oxidized coenzyme Q10] | increased | unchanged | about 74% | about 78% | almost no difference | about 76% | about 87% | – | – | – | –
COc1c(O)c(C)c(C/C=C(\C)CC/C=C(\C)CC/C=C(\C)CC/C=C(\C)CC/C=C(\C)CC/C=C(\C)CC/C=C(\C)CC/C=C(\C)CC/C=C(\C)CCC=C(C)C)c(O)c1OC [reduced coenzyme Q10] | – | – | – | – | – | – | – | around 90% | almost no difference | increased with the lapse of time | around 90%
